From patent US8399494B2, “2,5-disubstituted phenyl carboxamide orexin receptor antagonists” (Merck Sharp & Dohme Corp., priority 2008, dated 2013)

Target: T1, OX2R (Homo sapiens, UniProt O43614)
T1 construct: expressed in transfected cells; host or cells: CHO cells (membranes)
T1 sequence (O43614 1-444): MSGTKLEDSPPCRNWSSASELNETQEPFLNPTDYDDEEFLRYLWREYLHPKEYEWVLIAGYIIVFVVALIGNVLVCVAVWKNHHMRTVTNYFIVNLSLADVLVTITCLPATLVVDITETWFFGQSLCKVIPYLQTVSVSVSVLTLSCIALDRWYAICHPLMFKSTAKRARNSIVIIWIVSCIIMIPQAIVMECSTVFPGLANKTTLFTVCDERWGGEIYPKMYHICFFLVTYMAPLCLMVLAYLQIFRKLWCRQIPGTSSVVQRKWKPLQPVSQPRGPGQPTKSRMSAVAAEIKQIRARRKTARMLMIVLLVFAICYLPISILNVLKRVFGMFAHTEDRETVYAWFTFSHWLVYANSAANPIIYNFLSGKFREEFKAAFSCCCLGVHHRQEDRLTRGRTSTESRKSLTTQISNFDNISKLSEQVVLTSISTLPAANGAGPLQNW
Test: radioligand binding assay, OX2 receptor
Settings: membranes prepared from CHO cells expressing OX2 receptor

Ki [nM] | Compound
1.3 | CCc1nc(CNC(=O)c2cc(-c3cncc(C)c3)ccc2-c2cnn(C)c2)ccc1OC [1-17, N-[(6-ethyl-5-methoxypyridin-2-yl)methyl]-2-(1-methyl-1H-pyrazol-4-yl)-5-(5-methylpyridin-3-yl)benzamide]
0.12 | COc1ccc(CNC(=O)c2cc(-c3cc(Cl)cc(Cl)c3)ccc2-c2cccnc2)cc1OC [1-6, 3′,5′-dichloro-N-(3,4-dimethoxybenzyl)-4-pyridin-3-ylbiphenyl-3-carboxamide]
